Key:
[1] = target: bromodomain of SMARCA2 protein (Homo sapiens (Human), UniProt P40337+P51531); test: SMARCA2 bromodomain ternary binding TR-FRET assay (with VCB); details: with saturating VCB (5 μM); read-out: IC50 (SM 2_T) ternary binding potency in SMARCA2 FRET assay
Description: Recombinant bromodomain of SMARCA2 protein was purchased from Active Motif (Catalog #: 31449). VHL/ElonginB/ElonginC (VCB)N-terminal his6-tagged VHL (“his6” disclosed as SEQ ID NO: 4) (uniprot accession number P40337; M54-D213; […] […] […] (SEQ ID NO: 1)), Elongin B (Q15370; M1-K104; […] […] (SEQ ID NO: 2)), Elongin C (Q15369; M17-C112; […] […] (SEQ ID NO: 3)) complex were co-expressed and the complex was purified by Ni-affinity, TEV protease was then used to remove his6-tagged (SEQ ID NO: 4), and the complex was further purified by size-exclusion chromatography before use.
The inhibitory activity of compounds was evaluated in vitro using TR-FRET assay with white 384-well low volume microplate (PerkinElmer ProxiPlate Plus), in which the compound competes the same binding site with the ligand, and thus lead to dose-dependent TR-FRET signal reduction. The cooperativity of the compounds for ternary complex formation with E3 ligase was evaluated in the absence or presence of saturating concentrations of VCB. Testing compounds were dissolved in DMSO at […] and tested in 9-dose IC50. The assay mixture was prepared by mixing SMARCA2 (10 nM final), biotinylated probe (25 nM final), and assay buffer or VCB (5 μM) in 1×AlphaLISA Epigenetics Buffer (PerkinElmer AL008F) with 1 mM TCEP. The compounds in DMSO were added to each well in 3-fold serial dilution by dispenser (TECAN D300E) and incubate for 20 minutes at room temperature before addition of detection reagents, Lance Eu W1024 anti-6×His (0.6 nM final, PerkinElmer AD0110) and Streptavidin Surelight APC (6 nM final, PerkinElmer CR130-100). The plate was then sealed and further incubated at 4° C. overnight in dark, and then was read by Envision multimode plate reader (PerkinElmer, 2102-0010). The ratio of florescence signal at 665/620 was used in data analysis. Percentage inhibition was calculated by % inhibition=100×(FDMSO-F)/(FDMSO-FPC), in which FDMSO is DMSO control, and FPC is positive control. IC50 values were determined from dose response curve by fitting the percent inhibition against compound concentration using GraphPad Prism software.

SMARCA2 [2] = target: T1, SMARCA2 (Homo sapiens (Human), UniProt P51531); test: In Cell Western SMARCA2 degradation in NCIH520 cells; format: cell-based; details: for DC50: H520 cells, overnight, read-out: DC50 (SM2_H520) SMARCA2 degradation potency; for Dmax: NCI-H520, overnight, read-out: Dmax % (SM2_H520) maximum SMARCA2 degradation within the concentrations tested
T1 sequence (P51531 whole entry): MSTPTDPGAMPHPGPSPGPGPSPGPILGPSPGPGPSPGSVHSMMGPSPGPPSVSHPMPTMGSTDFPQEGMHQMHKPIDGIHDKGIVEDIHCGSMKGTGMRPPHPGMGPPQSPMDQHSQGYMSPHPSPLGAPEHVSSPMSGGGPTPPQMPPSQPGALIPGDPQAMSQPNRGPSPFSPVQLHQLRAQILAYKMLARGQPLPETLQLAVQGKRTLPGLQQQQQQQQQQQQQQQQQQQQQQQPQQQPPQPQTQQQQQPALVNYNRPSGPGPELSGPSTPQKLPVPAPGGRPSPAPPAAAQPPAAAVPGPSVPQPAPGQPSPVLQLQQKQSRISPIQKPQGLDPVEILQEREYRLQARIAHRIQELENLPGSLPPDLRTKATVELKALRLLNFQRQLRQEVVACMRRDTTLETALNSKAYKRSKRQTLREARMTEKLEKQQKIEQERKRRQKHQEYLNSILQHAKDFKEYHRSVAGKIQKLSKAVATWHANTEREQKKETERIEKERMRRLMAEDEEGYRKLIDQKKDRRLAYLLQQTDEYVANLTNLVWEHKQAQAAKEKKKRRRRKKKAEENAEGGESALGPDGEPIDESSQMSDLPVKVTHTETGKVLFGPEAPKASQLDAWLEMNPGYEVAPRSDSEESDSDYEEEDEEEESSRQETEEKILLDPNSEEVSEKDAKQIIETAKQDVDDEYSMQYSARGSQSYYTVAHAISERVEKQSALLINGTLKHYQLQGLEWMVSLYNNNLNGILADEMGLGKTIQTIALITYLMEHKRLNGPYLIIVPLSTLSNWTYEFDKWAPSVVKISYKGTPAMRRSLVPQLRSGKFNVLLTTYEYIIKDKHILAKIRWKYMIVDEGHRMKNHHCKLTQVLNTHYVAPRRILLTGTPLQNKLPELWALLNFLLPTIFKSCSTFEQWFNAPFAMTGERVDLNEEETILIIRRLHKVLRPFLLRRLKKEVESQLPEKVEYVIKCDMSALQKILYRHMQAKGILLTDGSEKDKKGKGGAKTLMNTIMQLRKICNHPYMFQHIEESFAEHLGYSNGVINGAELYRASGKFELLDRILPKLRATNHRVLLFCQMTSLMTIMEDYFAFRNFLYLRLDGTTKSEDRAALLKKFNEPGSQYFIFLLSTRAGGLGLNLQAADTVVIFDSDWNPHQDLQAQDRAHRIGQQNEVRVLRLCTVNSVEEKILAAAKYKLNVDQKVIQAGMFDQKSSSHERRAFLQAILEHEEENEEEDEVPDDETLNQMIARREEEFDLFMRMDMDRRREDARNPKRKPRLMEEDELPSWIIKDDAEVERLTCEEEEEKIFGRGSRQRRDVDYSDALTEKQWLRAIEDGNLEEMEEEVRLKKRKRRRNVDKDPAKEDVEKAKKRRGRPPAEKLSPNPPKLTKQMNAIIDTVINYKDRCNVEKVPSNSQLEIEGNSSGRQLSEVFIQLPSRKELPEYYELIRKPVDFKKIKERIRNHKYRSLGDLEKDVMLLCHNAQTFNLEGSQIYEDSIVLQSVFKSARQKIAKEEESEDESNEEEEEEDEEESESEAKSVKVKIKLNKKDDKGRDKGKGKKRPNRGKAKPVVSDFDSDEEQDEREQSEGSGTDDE
Protocol: (§1) Compound titration and cell culture: Compounds were dissolved in DMSO to make 10 mM stock and 3-fold series dilutions were further conducted keeping the highest concentration 10 μM. NCIH1693 and NCIH520 cells were maintained in PRMI 1640 medium (Corning Cellgro, Catalog #:10-040-CV) supplemented with 10% v/v FBS (GE Healthcare, Catalog #: SH30910.03) by splitting 1:3 twice a week.
(§2) To determine SMACRA2 and SMARCA4 protein degradation DC50 values in NCIH1693 and NCIH520 cells by In Cell Western (ICW) analysis. Cells were trypsinized and 30 thousand cells/well were seeded into 384-well plates and were allowed to grow for 5 hours at 37° C. Eight-point, 3-fold serial dilutions of compounds from 10 mM stocks were added to the cells (using digital Dispenser D300-Tecan, keeping highest concentration 10 μM and normalizing with DMSO at the highest dispensed volume). Plates were incubated at 37° C. for overnight (maximum 18 hours). Cells incubated with DMSO was used as a vehicle control.
(§3) To perform In Cell Western, medium was removed from all the wells leaving cells attached to the surface. After removing the medium, cells were fixed within the plates with 40 μL of 4% formaldehyde by incubating at room temperature for 30 minutes, and then permeabilized with wash buffer (1×PBS with 0.1% Triton X-100) by washing the plate 5 times with 50 μL/well. Before labeling with primary antibodies, cells were blocked with 30 μL/well of blocking buffer (Licor Odyssey blocking buffer PBS #927-40000) for 30 minutes at room temperature. To measure SMARCA2 or SMARCA4 proteins, cells were labeled with 20 μL/well of anti SMARCA2 or SMACRA4 antibodies (Cell Signaling BRM #11966S 1:1000, Cell Signaling BRG #49360S 1:1000) diluted in Li-Cor Odyssey blocking buffer-PBS #927-40000, followed by overnight incubation at 4° C.
(§4) The next day, plates were washed 5×5 minutes with 50 μL/well of washing buffer to remove all the excess primary antibody and then 20 μL from a mixture of secondary antibody and fluorescent DNA specific dye (Goat anti rabbit 1:500 IRDye-800CW #92632211, and DRAQ5™ 1:2000-#ab108410) was added to each well. Plates were incubated for 1 hour at room temperature with gentle rocking. Cells were washed 5 times with 50 μL/well wash buffer, followed by one last wash with DI water, followed by 10 mins drying at 37° C. oven before scanning. Plates were scanned using Li-Cor Odyssey CLx imaging system to acquire integrated intensities at 700 nm and 800 nm. SMARCA signals were normalized to total cell count and then these normalized values were used to calculate the percent degradation relative to DMSO control and maximum inhibition. DC50s were calculated by using the GraphPad Prism4 program based on sigmoidal dose response equation ([Inhibitor] vs. normalized response−Variable slope).

SMARCA4 [3] = target: T2, SMARCA4 (Homo sapiens (Human), UniProt P51532); test: In Cell Western SMARCA4 degradation in NCIH520 cells; format: cell-based; details: for DC50: H520 cells, overnight, read-out: DC50 (SM4_H520) SMARCA4 degradation potency; for Dmax: NCI-H520, overnight, read-out: Dmax % (SM4_H520) maximum SMARCA4 degradation within the concentrations tested
T2 sequence (P51532 whole entry): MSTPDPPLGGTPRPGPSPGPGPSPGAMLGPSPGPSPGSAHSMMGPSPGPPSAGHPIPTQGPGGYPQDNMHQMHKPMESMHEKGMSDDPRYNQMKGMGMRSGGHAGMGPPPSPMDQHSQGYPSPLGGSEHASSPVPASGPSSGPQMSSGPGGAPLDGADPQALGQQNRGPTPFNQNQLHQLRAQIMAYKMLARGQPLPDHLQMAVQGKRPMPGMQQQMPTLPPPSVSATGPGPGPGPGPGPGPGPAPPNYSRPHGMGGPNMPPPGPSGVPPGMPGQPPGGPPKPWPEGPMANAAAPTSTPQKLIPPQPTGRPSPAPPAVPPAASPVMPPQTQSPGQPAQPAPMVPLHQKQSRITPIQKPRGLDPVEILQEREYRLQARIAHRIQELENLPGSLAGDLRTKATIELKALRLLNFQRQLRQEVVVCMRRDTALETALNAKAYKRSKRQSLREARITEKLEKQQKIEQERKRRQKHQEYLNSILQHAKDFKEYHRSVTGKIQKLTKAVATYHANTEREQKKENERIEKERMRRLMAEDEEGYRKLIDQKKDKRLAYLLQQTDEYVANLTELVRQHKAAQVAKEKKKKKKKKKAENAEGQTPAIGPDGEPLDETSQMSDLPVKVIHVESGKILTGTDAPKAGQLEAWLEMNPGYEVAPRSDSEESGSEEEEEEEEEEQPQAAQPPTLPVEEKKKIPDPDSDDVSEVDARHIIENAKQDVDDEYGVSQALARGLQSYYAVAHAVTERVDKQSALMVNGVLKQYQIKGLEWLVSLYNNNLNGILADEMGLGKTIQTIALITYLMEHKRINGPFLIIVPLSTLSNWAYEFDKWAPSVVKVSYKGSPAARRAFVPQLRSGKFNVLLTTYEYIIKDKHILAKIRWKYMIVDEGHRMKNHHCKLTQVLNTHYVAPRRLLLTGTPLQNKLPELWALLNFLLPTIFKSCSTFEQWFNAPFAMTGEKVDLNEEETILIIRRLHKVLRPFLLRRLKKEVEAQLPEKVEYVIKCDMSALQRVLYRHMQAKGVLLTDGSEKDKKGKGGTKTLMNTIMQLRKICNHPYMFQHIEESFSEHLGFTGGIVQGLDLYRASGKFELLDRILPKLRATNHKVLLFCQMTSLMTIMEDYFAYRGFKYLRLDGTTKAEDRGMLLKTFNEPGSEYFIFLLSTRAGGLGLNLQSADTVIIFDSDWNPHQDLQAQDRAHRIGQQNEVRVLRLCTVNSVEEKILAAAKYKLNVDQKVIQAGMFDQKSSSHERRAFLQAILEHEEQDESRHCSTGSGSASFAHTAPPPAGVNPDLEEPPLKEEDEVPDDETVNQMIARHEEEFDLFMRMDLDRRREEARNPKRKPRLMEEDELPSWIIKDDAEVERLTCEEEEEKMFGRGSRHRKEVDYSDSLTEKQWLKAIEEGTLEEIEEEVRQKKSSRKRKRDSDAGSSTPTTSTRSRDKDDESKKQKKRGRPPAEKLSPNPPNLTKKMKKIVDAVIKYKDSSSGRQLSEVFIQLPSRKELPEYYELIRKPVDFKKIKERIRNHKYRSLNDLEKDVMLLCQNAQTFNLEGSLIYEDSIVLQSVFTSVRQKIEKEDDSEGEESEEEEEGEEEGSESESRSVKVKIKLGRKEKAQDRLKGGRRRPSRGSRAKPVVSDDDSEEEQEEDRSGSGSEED
Protocol: as §1, §2, §3, §4

SMARCA2 [4] = target: T1, SMARCA2; test: SMARCA2 HiBiT degradation assay in HeLa cells; format: cell-based; details: 18 hours; for DC50: read-out: DC50 (SM2-HeLa) SMARCA2 degradation potency; for Dmax: read-out: Dmax % (SM2-HeLa) maximum SMARCA2 degradation within the concentrations tested
Method in brief: (§5)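 HeLa monoclonal lines carrying a heterozygous HiBiT knock-in on SMARCA2 or SMARCA4 were seeded at 2500 cells/well in EMEM with 10% FBS. After 18 h compound exposure at 37 °C, Nano-Glo HiBiT lytic detection ran 30-60 min at RT before the luminescence read. Values are from curve fits.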

SMARCA4 [5] = target: T2, SMARCA4; test: SMARCA4 HiBiT degradation assay in HeLa cells; format: cell-based; details: 18 hours; for DC50: read-out: DC50 (SM4-HeLa) SMARCA4 degradation potency; for Dmax: HeLa, read-out: Dmax % (SM4-HeLa) maximum SMARCA4 degradation within the concentrations tested
Method in brief: as §5

Sequence of bromodomain of SMARCA2 protein (P51531 whole entry, looked up): as the sequence (P51531 whole entry) above
Sequence of bromodomain of SMARCA2 protein (P40337 whole entry, looked up): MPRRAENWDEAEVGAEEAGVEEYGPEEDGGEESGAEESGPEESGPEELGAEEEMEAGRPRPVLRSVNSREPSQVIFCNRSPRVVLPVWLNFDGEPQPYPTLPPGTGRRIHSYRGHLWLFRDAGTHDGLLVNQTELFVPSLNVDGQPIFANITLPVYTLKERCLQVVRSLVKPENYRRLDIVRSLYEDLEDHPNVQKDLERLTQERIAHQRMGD
Sequence of bromodomain of SMARCA2 protein (Q15370 whole entry partner, looked up): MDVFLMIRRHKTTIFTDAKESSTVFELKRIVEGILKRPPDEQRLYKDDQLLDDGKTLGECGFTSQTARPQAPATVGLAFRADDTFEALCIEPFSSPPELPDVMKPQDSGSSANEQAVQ
Sequence of bromodomain of SMARCA2 protein (Q15369 whole entry partner, looked up): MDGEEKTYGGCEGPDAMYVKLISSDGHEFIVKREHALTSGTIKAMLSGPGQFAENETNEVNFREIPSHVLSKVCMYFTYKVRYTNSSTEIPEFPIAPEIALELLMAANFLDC

## Cc1ncsc1-c1ccc([C@H](C)NC(=O)[C@@H]2C[C@@H](O)CN2C(=O)[C@@H](NC(=O)CN2CCC(CN3CCN4c5cc(-c6ccccc6O)nnc5NCC4C3)CC2)C(C)(C)C)cc1 (stereo partly drawn) [Example 3, (2S,4R)-4-hydroxy-1-((2S)-2-(2-(4-((2-(2-hydroxyphenyl)-5,6,6a,7,9,10-hexahydro-8H-pyrazino[1′,2′:4,5]pyrazino[2,3-c]pyridazin-8-yl)methyl)piperidin-1-yl)acetamido)-3,3-dimethylbutanoyl)-N-((S)-1-(4-(4-methylthiazol-5-yl)phenyl)ethyl)pyrrolidine-2-carboxamide]
[1]
  IC50: < 100 nM
SMARCA2 [2]
  DC50: < 100 nM
  Dmax: > 75%
SMARCA4 [3]
  DC50: 100 to 1000 nM
  Dmax: > 75%

## Cc1ncsc1-c1ccc([C@H](C)NC(=O)[C@@H]2C[C@@H](O)CN2C(=O)[C@@H](c2cc(OCCN3CCN4c5cc(-c6ccccc6O)nnc5NC(C)C4C3)no2)C(C)C)cc1 (stereo partly drawn) [Example 95, (2S,4R)-4-hydroxy-1-((2R)-2-(3-(2-(2-(2-hydroxyphenyl)-6-methyl-5,6,6a,7,9,10-hexahydro-8H-pyrazino[1′,2′:4,5]pyrazino[2,3-c]pyridazin-8-yl)ethoxy)isoxazol-5-yl)-3-methylbutanoyl)-N-((S)-1-(4-(4-methylthiazol-5-yl)phenyl)ethyl)pyrrolidine-2-carboxamide]
SMARCA2 [4]
  DC50: < 100 nM
  Dmax: > 75%
SMARCA4 [5]
  DC50: < 100 nM
  Dmax: > 75%

## Cc1ncsc1-c1ccc([C@H](C)NC(=O)[C@@H]2C[C@@H](O)CN2C(=O)C(c2cc(OCCN3CCC(CN4CCN5c6cc(-c7ccccc7O)nnc6NCC5C4)CC3)no2)C(C)C)cc1 (stereo in doubt) [Example 5, (2S,4R)-4-hydroxy-1-((2S)-2-(3-(2-(4-((2-(2-hydroxyphenyl)-5,6,6a,7,9,10-hexahydro-8H-pyrazino[1′,2′:4,5]pyrazino[2,3-c]pyridazin-8-yl)methyl)piperidin-1-yl)ethoxy)isoxazol-5-yl)-3-methylbutanoyl)-N-((S)-1-(4-(4-methylthiazol-5-yl)phenyl)ethyl)pyrrolidine-2-carboxamide]
[1]
  IC50: < 100 nM
SMARCA2 [2]
  DC50: < 100 nM
  Dmax: > 75%
SMARCA4 [3]
  DC50: < 100 nM
  Dmax: > 75%

## Cc1ncsc1-c1ccc([C@H](C)NC(=O)[C@@H]2C[C@@H](O)CN2C(=O)[C@@H](c2cc(OCCN3CCC(CN4C[C@@H]5CNc6nnc(-c7ccccc7O)cc6N5C[C@@H]4C)CC3)no2)C(C)C)cc1 [Example 101, (2S,4R)-4-hydroxy-1-((R)-2-(3-(2-(4-(((6aS,9S)-2-(2-hydroxyphenyl)-9-methyl-5,6,6a,7,9,10-hexahydro-8H-pyrazino[1′,2′:4,5]pyrazino[2,3-c]pyridazin-8-yl)methyl)piperidin-1-yl)ethoxy)isoxazol-5-yl)-3-methylbutanoyl)-N-((S)-1-(4-(4-methylthiazol-5-yl)phenyl)ethyl)pyrrolidine-2-carboxamide]
SMARCA2 [4]
  DC50: < 100 nM
  Dmax: > 75%
SMARCA4 [5]
  DC50: < 100 nM
  Dmax: > 75%

## Cc1ncsc1-c1ccc([C@H](C)NC(=O)[C@@H]2C[C@@H](O)CN2C(=O)[C@@H](c2cc(OCCN3CCC(N4CCN5c6cc(-c7ccccc7O)nnc6NCC5(C)C4)CC3)no2)C(C)C)cc1 (stereo partly drawn) [Example 63, (2S,4R)-4-hydroxy-1-((2R)-2-(3-(2-(4-(2-(2-hydroxyphenyl)-6a-methyl-5,6,6a,7,9,10-hexahydro-8H-pyrazino[1′,2′:4,5]pyrazino[2,3-c]pyridazin-8-yl)piperidin-1-yl)ethoxy)isoxazol-5-yl)-3-methylbutanoyl)-N-((S)-1-(4-(4-methylthiazol-5-yl)phenyl)ethyl)pyrrolidine-2-carboxamide]
SMARCA2 [4]
  DC50: < 100 nM
  Dmax: > 75%
SMARCA4 [5]
  DC50: < 100 nM
  Dmax: > 75%

## Cc1ncsc1-c1ccc([C@H](C)NC(=O)[C@@H]2C[C@@H](O)CN2C(=O)[C@@H](c2cc(OCCN3CCC(N4CCC(N5CCN6c7cc(-c8ccccc8O)nnc7NC[C@H]6C5)CC4)C3)no2)C(C)C)cc1 (stereo partly drawn) [Example 26, (2S,4R)-4-hydroxy-1-((2R)-2-(3-(2-(3-(4-((S)-2-(2-hydroxyphenyl)-5,6,6a,7,9,10-hexahydro-8H-pyrazino[1′,2′:4,5]pyrazino[2,3-c]pyridazin-8-yl)piperidin-1-yl)pyrrolidin-1-yl)ethoxy)isoxazol-5-yl)-3-methylbutanoyl)-N-((S)-1-(4-(4-methylthiazol-5-yl)phenyl)ethyl)pyrrolidine-2-carboxamide]
SMARCA2 [4]
  DC50: < 100 nM
SMARCA4 [5]
  DC50: 100 to 1000 nM

## Cc1ncsc1-c1ccc([C@H](C)NC(=O)[C@@H]2C[C@@H](O)CN2C(=O)[C@@H](c2cc(OCCN3CCC(N4C[C@@H]5CNc6nnc(-c7ccccc7O)cc6N5C[C@@H]4C)C3)no2)C(C)C)cc1 (stereo partly drawn) [Example 102, (2S,4R)-4-hydroxy-1-((2R)-2-(3-(2-(3-((6aS,9S)-2-(2-hydroxyphenyl)-9-methyl-5,6,6a,7,9,10-hexahydro-8H-pyrazino[1′,2′:4,5]pyrazino[2,3-c]pyridazin-8-yl)pyrrolidin-1-yl)ethoxy)isoxazol-5-yl)-3-methylbutanoyl)-N-((S)-1-(4-(4-methylthiazol-5-yl)phenyl)ethyl)pyrrolidine-2-carboxamide]
SMARCA2 [4]
  DC50: < 100 nM
  Dmax: > 75%
SMARCA4 [5]
  DC50: < 100 nM
  Dmax: > 75%

From patent US20240018158A1, “BRM TARGETING COMPOUNDS AND ASSOCIATED METHODS OF USE” (Prelude Therapeutics Incorporated, priority 2020, published 2024)
